Assay results reported in article PMC11859928, “Design, Synthesis, and Antiproliferative Activity of Novel Indole/1,2,4-Triazole Hybrids as Tubulin Polymerization Inhibitors” (Pharmaceuticals, 2025).
Read-outs that look alike come from different tables or passages of the source.

Columns and labels:
COLO205 = test: NCI five-dose assay; assay type: cell-based, human; details: COLO205, Colon cancer
RXF393 = test: NCI five-dose assay; assay type: cell-based, human; details: RXF393, Renal cancer
HCT-116 = test: NCI five-dose assay; assay type: cell-based, human; details: HCT-116, Colon cancer
A549/ATCC = test: NCI five-dose assay; assay type: cell-based, human; details: Non-small cell lung cancer
NCI-H322M = test: NCI five-dose assay; assay type: cell-based, human; details: Non-small cell lung cancer
NCI-H23 = test: NCI five-dose assay; assay type: cell-based, human; details: NCI-H23, Non-small cell lung cancer
M14 = test: NCI five-dose assay; assay type: cell-based, human; details: M14, Melanoma
U251 = test: NCI five-dose assay; assay type: cell-based, human; details: Homo sapiens, U-251, U251, CNS cancer
SNB-75 = test: NCI five-dose assay; assay type: cell-based, human; details: SNB-75, CNS cancer
RPMI-8226 = test: NCI five-dose assay; assay type: cell-based, human; details: Homo sapiens, RPMI-8226, Leukemia
SK-OV-3 = test: NCI five-dose assay; assay type: cell-based, human; details: SK-OV-3, Ovarian cancer
MDA-MB-435 = test: NCI five-dose assay; assay type: cell-based, human; details: MDA-MB-435, Melanoma
Melanoma subpanel = test: NCI five-dose assay, subpanel mean; assay type: cell-based, human
SN12C = test: NCI five-dose assay; assay type: cell-based, human; details: Renal cancer
SF-295 = test: NCI five-dose assay; assay type: cell-based, human; details: SF-295, CNS cancer
Leukemia subpanel = test: NCI five-dose assay, subpanel mean; assay type: cell-based, human
NCI/ADR-RES = test: NCI five-dose assay; assay type: cell-based, human; details: Ovarian cancer
MALME-3M = test: NCI five-dose assay; assay type: cell-based, human; details: Melanoma
UO-31 = test: NCI five-dose assay; assay type: cell-based, human; details: UO-31, Renal cancer
SR = test: NCI five-dose assay; assay type: cell-based, human; details: Leukemia
NCI-H522 = test: NCI five-dose assay; assay type: cell-based, human; details: NCI-H522, Non-small cell lung cancer
SK-MEL-28 = test: NCI five-dose assay; assay type: cell-based, human; details: SK-MEL-28, Melanoma
SK-MEL-5 = test: NCI five-dose assay; assay type: cell-based, human; details: SK-MEL-5, Melanoma
HCT-15 = test: NCI five-dose assay; assay type: cell-based, human; details: HCT-15, Colon cancer
[1] = tested on: panel of 60 human tumor cell lines; test: NCI five-dose assay, full panel; assay type: cell-based
786-0 = test: NCI five-dose assay; assay type: cell-based, human; details: 786-0, Renal cancer
[2] = Homo sapiens, 48 h, read-out: LC50 (the source's name)
[3] = Homo sapiens, read-out: GI50 Conc. per Cell Lines
[4] = 48 h, read-out: LC50 (the source's name)
[5] = read-out: GI50 Conc. per Cell Lines

O/N=C(\CSc1nnc(-c2c[nH]c3ccccc23)n1-c1ccccc1)c1ccc(Br)cc1 [Compound 7i, (Z)-2-((5-(1H-Indol-3-yl)-4-phenyl-4H-1,2,4-triazol-3-yl)thio)-1-(4-bromophenyl) Ethanone Oxime]
TGI Conc. per Cell Lines (COLO205): 16.60 µM
CC50 (COLO205; Homo sapiens, COLO 205, 48 h, read-out: LC50 (the source's name)): > 100 µM
GI50 (COLO205; Homo sapiens, COLO 205, read-out: GI50 Conc. per Cell Lines): 3.8 µM
LC50 (concentration killing 50% of cells) (RXF393; Homo sapiens, RXF 393, 48 h): 7.65 µM
GI50 (RXF393; Homo sapiens, RXF 393, read-out: GI50 Conc. per Cell Lines): 1.75 µM
TGI Conc. per Cell Lines (RXF393): 3.65 µM
TGI Conc. per Cell Lines (HCT-116): 17.40 µM
CC50 (HCT-116; [2]): > 100 µM
GI50 (HCT-116; [3]): 3.45 µM
CC50 (A549/ATCC; [2]): 31 µM
GI50 (A549/ATCC; [3]): 2.49 µM
TGI Conc. per Cell Lines (A549/ATCC): 6.66 µM
CC50 (NCI-H322M; [2]): 93.3 µM
GI50 (NCI-H322M; [3]): 4.8 µM
TGI Conc. per Cell Lines (NCI-H322M): 24.20 µM
CC50 (NCI-H23; [2]): 84.3 µM
GI50 (NCI-H23; [3]): 4.31 µM
TGI Conc. per Cell Lines (NCI-H23): 19.60 µM
CC50 (M14; [2]): > 100 µM
GI50 (M14; [3]): 3.4 µM
TGI Conc. per Cell Lines (M14): 17.60 µM
CC50 (U251; [4]): 51.2 µM
GI50 (U251; [5]): 4.38 µM
CC50 (SNB-75; [2]): 28.1 µM
GI50 (SNB-75; [3]): 1.87 µM
TGI Conc. per Cell Lines (SNB-75): 4.95 µM
CC50 (RPMI-8226; [4]): > 100 µM
GI50 (RPMI-8226; [5]): 2.45 µM
CC50 (SK-OV-3; [2]): 27.4 µM
GI50 (SK-OV-3; [3]): 2.53 µM
TGI Conc. per Cell Lines (SK-OV-3): 6.03 µM
CC50 (MDA-MB-435; [2]): 7.57 µM
GI50 (MDA-MB-435; [3]): 2.01 µM
TGI Conc. per Cell Lines (MDA-MB-435): 3.89 µM
GI50 (Melanoma subpanel; Homo sapiens, average sensitivity of all cell lines of the Melanoma subpanel, read-out: GI50 Subpanel MID b): 2.89 µM
GI50 Selectivity Ratio (MID a/MID b) (Melanoma subpanel; Melanoma subpanel): 0.97
CC50 (SN12C; [2]): 30.1 µM
GI50 (SN12C; [3]): 2.52 µM
TGI Conc. per Cell Lines (SN12C): 7.97 µM
CC50 (SF-295; [2]): 13.6 µM
GI50 (SF-295; [3]): 1.93 µM
TGI Conc. per Cell Lines (SF-295): 4.70 µM
GI50 (Leukemia subpanel; Homo sapiens, average sensitivity of all cell lines of the Leukemia subpanel, read-out: GI50 Subpanel MID b): 2.29 µM
GI50 Selectivity Ratio (MID a/MID b) (Leukemia subpanel; Leukemia subpanel): 1.22
LC50 (NCI/ADR-RES; Homo sapiens, 48 h): 8.08 µM
GI50 (NCI/ADR-RES; [3]): 1.9 µM
TGI Conc. per Cell Lines (NCI/ADR-RES): 3.92 µM
CC50 (MALME-3M; [2]): 87 µM
GI50 (MALME-3M; [3]): 3.22 µM
TGI Conc. per Cell Lines (MALME-3M): 14.30 µM
CC50 (UO-31; [2]): 34.3 µM
GI50 (UO-31; [3]): 2.29 µM
TGI Conc. per Cell Lines (UO-31): 7.81 µM
CC50 (SR; [2]): > 100 µM
TGI Conc. per Cell Lines (SR): >100 µM
CC50 (NCI-H522; [2]): 61.6 µM
GI50 (NCI-H522; [3]): 2.52 µM
TGI Conc. per Cell Lines (NCI-H522): 7.70 µM
CC50 (SK-MEL-28; [2]): 44.8 µM
GI50 (SK-MEL-28; [3]): 3.4 µM
TGI Conc. per Cell Lines (SK-MEL-28): 12.50 µM
CC50 (SK-MEL-5; [2]): 35.8 µM
GI50 (SK-MEL-5; [3]): 3.55 µM
TGI Conc. per Cell Lines (SK-MEL-5): 12.80 µM
TGI Conc. per Cell Lines (HCT-15): 4.72 µM
CC50 (HCT-15; [2]): 12.1 µM
GI50 (HCT-15; [3]): 2.11 µM
GI50 ([1]; average sensitivity of all cell lines, read-out: GI50 MID a): 2.8 µM
GI50 ([1]; most of the tested cell lines across nine subpanels, read-out: GI50 values, range across nine subpanels): 2.1 to 3.23 µM
TGI Conc. per Cell Lines (786-0): 27.00 µM
LC50 (50% lethal concentration) (786-0; Homo sapiens, 48 h): 93.4 µM
GI50 (786-0; [3]): 6.85 µM
